Earlier results, collected in patent publication US11737981B2, “Cellulosic polymer nanoparticles and methods of forming them” (The Trustees of Princeton University, priority 2017, dated 2023).
≈ marks a conversion by molar mass, not a printed value.

| solubility in water | Compound |
| --- | --- |
| ~9.6 µg/mL (≈ 13.6 µM) | CCC(C)n1ncn(-c2ccc(N3CCN(c4ccc(OCC5COC(Cn6cncn6)(c6ccc(Cl)cc6Cl)O5)cc4)CC3)cc2)c1=O (stereo not drawn) [Itraconazole] |
| about 0.47 mg/L | artefenomel mesylate [OZ439 mesylate] |
| about 0.031 mg/L | CCCCN(CCCC)CC(O)c1cc(Cl)cc2c1-c1ccc(Cl)cc1/C2=C/c1ccc(Cl)cc1 (stereo not drawn) [Lumefantrine] |
